Source: patent US9273041B2, “Compounds for the treatment of dyslipidemia and related diseases” (Cadila Healthcare Limited, priority 2012, dated 2016)

Target: PCSK9 (Homo sapiens, UniProt Q8NBP7)
Assay: PCSK9-LDLR in vitro binding assay (solid phase, ELISA readout)
Conditions: read-out: % Inhibition PCSK 9; for inhibition at 10 µM: test compound concentration 10 μM; for inhibition at 100 µM: test compound concentration 100 μM; for inhibition at 1 µM: test compound concentration 1 μM
Protocol: The PCSK9-LDLR in vitro binding Assay is a quantitative solid phase binding assay between PCSK9 and recombinant LDLR. Plates were pre-coated with a recombinant LDLR-AB domain, which binds PCSK9. Test compound at different concentration was added to the PCSK9 and added to LDLR immobilized on the wells. The amount of bound PCSK9 is measured by binding it with biotinylated anti-His-tag monoclonal antibody, followed by binding with horseradish peroxidase conjugated streptavidin substrate. The color was quantified by ELISA reader at […] which reflects the relative amount of PCSK9 that binds to LDLR in presence and absence of the inhibitor. EC50 values were calculated by nonlinear regression analysis using graph pad prism software. Each concentration point represents values in duplicates.

Sequence of PCSK9 (Q8NBP7 153-692): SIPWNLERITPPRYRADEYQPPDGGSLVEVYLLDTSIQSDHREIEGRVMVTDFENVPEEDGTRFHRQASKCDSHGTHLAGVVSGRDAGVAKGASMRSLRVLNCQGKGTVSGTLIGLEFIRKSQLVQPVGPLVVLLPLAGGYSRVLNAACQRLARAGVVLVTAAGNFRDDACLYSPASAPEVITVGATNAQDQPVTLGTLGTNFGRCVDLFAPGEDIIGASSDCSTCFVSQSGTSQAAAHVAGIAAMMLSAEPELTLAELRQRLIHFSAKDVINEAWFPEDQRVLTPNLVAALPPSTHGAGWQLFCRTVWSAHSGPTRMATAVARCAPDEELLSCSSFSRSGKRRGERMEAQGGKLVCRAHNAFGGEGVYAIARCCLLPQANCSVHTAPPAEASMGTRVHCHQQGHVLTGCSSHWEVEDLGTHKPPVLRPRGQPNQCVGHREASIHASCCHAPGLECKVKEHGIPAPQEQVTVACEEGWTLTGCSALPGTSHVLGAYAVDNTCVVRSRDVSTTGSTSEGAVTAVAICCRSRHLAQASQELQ
Sequence of PCSK9 (Q8NBP7 31-152 partner limits assumed): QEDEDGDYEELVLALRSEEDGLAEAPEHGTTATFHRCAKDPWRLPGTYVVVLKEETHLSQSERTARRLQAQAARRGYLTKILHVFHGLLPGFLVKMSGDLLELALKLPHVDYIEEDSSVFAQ

| SMILES | inhibition at 10 µM [%] | inhibition at 100 µM [%] | inhibition at 1 µM [%] |
| --- | --- | --- | --- |
| Cc1c(-c2ccc(OCC(=O)NCC3CCOCC3)cc2)noc1-c1ccccc1 [Example 1, 2-(4-(4-Methyl-5-phenylisoxazol-3-yl)phenoxy)-N-((tetrahydro-2H-pyran-4-yl)methyl)acetamide] | 42 | 68 |  |
| Cc1onc(-c2ccc(OCC(=O)NCC3CCOCC3)cc2)c1-c1ccccc1 [Example 2, 2-(4-(5-methyl-4-phenylisoxazol-3-yl)phenoxy)-N-((tetrahydro-2H-pyran-4-yl)methyl)acetamide] | 9 | 33 |  |
| Cc1c(-c2ccc(OCC(=O)NCC3CCOCC3)cc2)noc1-c1ccc(F)cc1 [Example 3, 2-(4-(5-(4-fluorophenyl)-4-methylisoxazol-3-yl)phenoxy)-N-((tetrahydro-2H-pyran-4-yl)methyl)acetamide] | 35 | 65 | 33 |
| Cc1c(-c2ccc(OCC(=O)NCC3CCOCC3)cc2)noc1-c1ccc(Cl)cc1 [Example 4, 2-(4-(5-(4-chlorophenyl)-4-methylisoxazol-3-yl)phenoxy)-N-((tetrahydro-2H-pyran-4-yl)methyl)acetamide] | 36 | 29 |  |
| Cc1c(-c2ccc(OCC(=O)NCC3CCOCC3)cc2)noc1-c1ccc(C(F)(F)F)cc1 [Example 5, 2-(4-(4-methyl-5-(4-(trifluoromethyl)phenyl)isoxazol-3-yl)phenoxy)-N-((tetrahydro-2H-pyran-4-yl)methyl)acetamide] | 67 | 71 | 49 |
| Cc1ccc(-c2onc(-c3ccc(OCC(=O)NCC4CCOCC4)cc3)c2C)cc1 [Example 6, 2-(4-(4-methyl-5-(p-tolyl)isoxazol-3-yl)phenoxy)-N-((tetrahydro-2H-pyran-4-yl)methyl)acetamide] | 17 | 34 | 12 |
| Cc1c(-c2ccc(OCC(=O)NCC3CCOCC3)cc2)nsc1-c1ccccc1 [Example 7, 2-(4-(4-methyl-5-phenylisothiazol-3-yl)phenoxy)-N-((tetrahydro-2H-pyran-4-yl)methyl)acetamide] | 22 | 55 | 22 |
| COc1cc(-c2ccc(OCC(=O)NCC3CCOCC3)cc2)nn1-c1ccc(C(F)(F)F)cc1 [Example 8, 2-(4-(5-methoxy-1-(4-(trifluoromethyl)phenyl)-1H-pyrazol-3-yl)phenoxy)-N-((tetrahydro-2H-pyran-4-yl)methyl)acetamide] | 73 | 58 |  |
| COc1cc(-c2ccc(OCC(=O)NCC3CCOCC3)cc2)nn1-c1ccc(F)cc1 [Example 9, 2-(4-(1-(4-fluorophenyl)-5-methoxy-1H-pyrazol-3-yl)phenoxy)-N-((tetrahydro-2H-pyran-4-yl)methyl)acetamide] | 41 | 64 | 37 |
| COc1cc(-c2ccc(OCC(=O)NCC3CCOCC3)cc2)nn1-c1ccccc1 [Example 10, 2-(4-(5-methoxy-1-phenyl-1H-pyrazol-3-yl)phenoxy)-N-((tetrahydro-2H-pyran-4-yl)methyl)acetamide] | 40 | 56 | 33 |
| Cc1nc(-c2ccccc2)sc1-c1ccc(OCC(=O)NCC2CCOCC2)cc1 [Example 11, 2-(4-(4-methyl-2-phenylthiazol-5-yl)phenoxy)-N-((tetrahydro-2H-pyran-4-yl)methyl)acetamide] | 44 | 53 | 30 |
| Cc1nc(-c2ccc(C(F)(F)F)cc2)sc1-c1ccc(OCC(=O)NCC2CCOCC2)cc1 [Example 12, 2-(4-(4-methyl-2-(4-(trifluoromethyl)phenyl)thiazol-5-yl)phenoxy)-N-((tetrahydro-2H-pyran-4-yl)methyl)acetamide] | 33 | 36 |  |

Next, values leading:

| inhibition at 10 µM [%] | inhibition at 100 µM [%] | inhibition at 1 µM [%] | SMILES |
| --- | --- | --- | --- |
| 30 | 78 | 17 | Cc1nc(-c2ccc(F)cc2)sc1-c1ccc(OCC(=O)NCC2CCOCC2)cc1 [Example 13, 2-(4-(2-(4-fluorophenyl)-4-methylthiazol-5-yl)phenoxy)-N-((tetrahydro-2H-pyran-4-yl)methyl)acetamide] |
| 38 | 63 | 40 | Cc1oc(-c2ccccc2)nc1-c1ccc(OCC(=O)NCC2CCOCC2)cc1 [Example 17, 2-(4-(5-methyl-2-phenyloxazol-4-yl)phenoxy)-N-((tetrahydro-2H-pyran-4-yl)methyl)acetamide] |
| 53 |  |  | Cc1oc(-c2ccc(C(F)(F)F)cc2)nc1-c1ccc(OCC(=O)NCC2CCOCC2)cc1 [Example 18, 2-(4-(5-methyl-2-(4-(trifluoromethyl)phenyl)oxazol-4-yl)phenoxy)-N-((tetrahydro-2H-pyran-4-yl)methyl)acetamide] |
| 24 | 50 |  | Cc1oc(-c2ccc(F)cc2)nc1-c1ccc(OCC(=O)NCC2CCOCC2)cc1 [Example 19, 2-(4-(2-(4-fluorophenyl)-5-methyloxazol-4-yl)phenoxy)-N-((tetrahydro-2H-pyran-4-yl)methyl)acetamide] |
| 30 | 54 | 27 | Cc1ccc(-c2nc(-c3ccc(OCC(=O)NCC4CCOCC4)cc3)c(C)o2)cc1 [Example 22, 2-(4-(5-methyl-2-(p-tolyl)oxazol-4-yl)phenoxy)-N-((tetrahydro-2H-pyran-4-yl)methyl)acetamide] |
| 76 | 35 | 49 | Cc1oc(-c2cccnc2)nc1-c1ccc(OCC(=O)NCC2CCOCC2)cc1 [Example 24, 2-(4-(5-methyl-2-(pyridin-3-yl)oxazol-4-yl)phenoxy)-N-((tetrahydro-2H-pyran-4-yl)methyl)acetamide] |
| 50 | 64 | 37 | O=C(COc1ccc(-c2noc(-c3ccc(C(F)(F)F)cc3)n2)cc1)NCC1CCOCC1 [Example 25, N-((tetrahydro-2H-pyran-4-yl)methyl)-2-(4-(5-(4-(trifluoromethyl)phenyl)-1,2,4-oxadiazol-3-yl)phenoxy)acetamide] |
| 20 | 32 | 19 | O=C(COc1ccc(-c2nnc(-c3ccc(F)cc3)o2)cc1)NCC1CCOCC1 [Example 30, 2-(4-(5-(4-fluorophenyl)-1,3,4-oxadiazol-2-yl)phenoxy)-N-((tetrahydro-2H-pyran-4-yl)methyl)acetamide] |
| 34 | 36 | 25 | O=C(COc1ccc(-c2nnc(-c3ccc(C(F)(F)F)cc3)o2)cc1)NCC1CCOCC1 [Example 31, N-((tetrahydro-2H-pyran-4-yl)methyl)-2-(4-(5-(4-(trifluoromethyl)phenyl)-1,3,4-oxadiazol-2-yl)phenoxy)acetamide] |
| 23 | 30 | 13 | COc1ccc(-c2nnc(-c3ccc(OCC(=O)NCC4CCOCC4)cc3)o2)cc1 [Example 32, 2-(4-(5-(4-methoxyphenyl)-1,3,4-oxadiazol-2-yl)phenoxy)-N-((tetrahydro-2H-pyran-4-yl)methyl)acetamide] |
| 54 | 61 | 14 | O=C(COc1ccc(C2CN(c3ccc(F)cc3)C(=O)O2)cc1)NCC1CCOCC1 (stereo not drawn) [Example 35, 2-(4-(3-(4-fluorophenyl)-2-oxooxazolidin-5-yl)phenoxy)-N-((tetrahydro-2H-pyran-4-yl)methyl)acetamide] |
| 24 | 61 | 47 | COc1ccc(N2CC(c3ccc(OCC(=O)NCC4CCOCC4)cc3)OC2=O)cc1 (stereo not drawn) [Example 36, 2-(4-(3-(4-methoxyphenyl)-2-oxooxazolidin-5-yl)phenoxy)-N-((tetrahydro-2H-pyran-4-yl)methyl)acetamide] |
| 58 | 78 | 25 | O=C(COc1ccc(-n2cc(-c3ccccc3)nn2)cc1)NCC1CCOCC1 [Example 37, 2-(4-(4-phenyl-1H-1,2,3-triazol-1-yl)phenoxy)-N-((tetrahydro-2H-pyran-4-yl)methyl)acetamide] |
| 39 | 59 | 27 | COc1cc(-c2ccc(OCC(=O)NCC3CCOCC3)cc2)nn1Cc1ccc(C(F)(F)F)cc1 [Example 38, 2-(4-(5-methoxy-1-(4-(trifluoromethyl)benzyl)-1H-pyrazol-3-yl)phenoxy)-N-((tetrahydro-2H-pyran-4-yl)methyl)acetamide] |
| 9 | 15 |  | Cc1nc(-c2ccc(OCC(=O)NCC3CCOCC3)cc2)oc1C [Example 39, 2-(4-(4,5-dimethyloxazol-2-yl)phenoxy)-N-((tetrahydro-2H-pyran-4-yl)methyl)acetamide] |
